This passage reports Activity and pKb results from ChEMBL document CHEMBL1777783, “The synthesis and biological evaluation of 2-amino-4,5,6,7,8,9-hexahydrocycloocta[b]thiophenes as allosteric modulators of the A1 adenosine receptor” (Bioorg Med Chem Lett, 2011).

The source made the active and inactive calls. No cut-off for these calls is given here.

For assay [1], the target named is T1, Adenosine receptor A1 (Homo sapiens) (UniProt P30542).
T1 sequence (whole entry): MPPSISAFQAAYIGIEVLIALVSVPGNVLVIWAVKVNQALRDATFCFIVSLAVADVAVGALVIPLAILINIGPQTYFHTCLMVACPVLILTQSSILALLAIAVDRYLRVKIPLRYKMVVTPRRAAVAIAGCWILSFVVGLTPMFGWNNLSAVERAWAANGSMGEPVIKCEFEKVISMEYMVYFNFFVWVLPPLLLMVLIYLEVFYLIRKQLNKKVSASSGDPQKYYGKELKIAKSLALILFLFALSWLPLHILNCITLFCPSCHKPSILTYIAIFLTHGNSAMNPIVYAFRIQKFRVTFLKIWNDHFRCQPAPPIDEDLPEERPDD
Briefly: Allosteric modulation at human adenosine A1 receptor expressed in CHO FlpIn cells assessed as increase in ERK1/2 phosphorylation at 3 to 10 uM relative to control. The class given is cell-based.

In assay [2] the target is T1, Adenosine receptor A1 (Homo sapiens). Kind of assay: Allosteric modulation at human adenosine A1 receptor expressed in CHO FlpIn cells assessed as increase in EC50 concentration of N(6)-(R-phenylisopropyl)adenosine receptor agonist-induced ERK1/2 phosphorylation at 10 uM relative to control. The class given is functional, cell-based.
Assay [3] shares this target. Kind of assay: Allosteric modulation at human adenosine A1 receptor expressed in CHO FlpIn cells assessed as increase in EC50 concentration of N(6)-(R-phenylisopropyl)adenosine receptor agonist-induced ERK1/2 phosphorylation at 3 uM relative to control. It counts as functional, cell-based.
Assay [4] has the same target. Briefly: Allosteric modulation at human adenosine A1 receptor expressed in CHO FlpIn cells assessed as increase in leftward shift of N(6)-(R-phenylisopropyl)adenosine-mediated ERK1/2 phosphorylation curve at 0.1 to 10 uM. The class given is cell-based.
Assay [5] has the same target. Kind of assay: Binding affinity to human adenosine A1 receptor allosteric site expressed in CHO FlpIn cells. It counts as cell-based.

As to `NNC(=O)c1c(N)sc2c1CCCCCC2`, the outcome in assay [1] was inactive. In addition, the Activity in assay [2] and in assay [3] was 48% each time.

`Cc1ccc(C(=O)c2c(N)sc3c2CCCCC3)cc1`: the outcome in assay [1] was inactive. Moreover, the figures for the Activity in assay [2] and in assay [3] were 68% and 55%, respectively.

Consider `Nc1sc2c(c1C(=O)c1ccccc1)CCCCCC2`, for which the result in assay [1] was inactive. Moreover, the Activity in assay [2] was found to be 36%; in assay [3], 49%.

As for `Nc1sc2c(c1C(=O)NCc1ccccc1)CCCCCC2`, the result in assay [1] was inactive. The values for the Activity in assay [2] and in assay [3] were 50% and 48%, respectively.

With `Nc1sc2c(c1C(=O)c1cccc(C(F)(F)F)c1)CCC2`, the outcome in assay [1] was Active. Also, the Activity in assay [2] was 98%; in assay [3] it was 75%.

In the case of `Nc1sc2c(c1C(=O)NNc1ccccc1)CCCCCC2`, in assay [1], the result was inactive. The figures for the Activity in assay [2] and in assay [3] were 43% and 47%, respectively.

For `Cc1ccc(C(=O)c2c(N)sc3c2CCCCCC3)cc1`, in assay [1], the result was inactive. Further, the Activity in assay [2] was determined as 75%; in assay [3] it was 56%.

As to `Cc1ccc(C(=O)c2c(N)sc3c2CCCC3)cc1`, the result in assay [1] and in assay [4] was Active. The Activity turned out to be 91% in assay [2] and 70% in assay [3]. Moreover, in assay [5], the pKb is 5.1.

In the case of `Nc1sc2c(c1C(=O)NCc1cccc(Cl)c1)CCCCCC2`, the outcome in assay [1] was inactive. The Activity in assay [2] is 47%; in assay [3], 49%.

For the compound `NNC(=O)c1c(N)sc2c1CCCCC2`, the outcome in assay [1] was inactive. Moreover, the figures for the Activity in assay [2] and in assay [3] were 51% and 52%, respectively.

In the case of `NC(=O)c1c(N)sc2c1CCCCCC2`, in assay [1], the result was inactive. The Activity in assay [2] and in assay [3] was 48% each time.

Turning to `Nc1sc2c(c1C(=O)NNc1ccccc1)CCCCC2`, in assay [1], the result was inactive. The figures for the Activity in assay [2] and in assay [3] were 42% and 44%, respectively.

As to `Nc1sc2c(c1C(=O)c1cccc(C(F)(F)F)c1)CCCCC2`, the result in assay [1] was inactive. Moreover, the Activity in assay [2] was determined as 74%; in assay [3], 53%.

On to `Cc1ccc(C(=O)c2c(N)sc3c2CCC3)cc1`, for which, in assay [1], the result was inactive. Besides, the Activity in assay [2] came to 56%; in assay [3], 50%.

`Nc1sc2c(c1C(=O)c1cccc(C(F)(F)F)c1)CCCC2`: in assay [1], the result was Active. Besides, the Activity in assay [2] came out at 88%; in assay [3], 73%.

For `Nc1sc2c(c1C(=O)c1ccc(Cl)cc1)CCCCCC2`, the result in assay [1] was Active. In addition, the values for the Activity in assay [2] and in assay [3] were 63% and 56%, respectively.

Regarding `Nc1sc2c(c1C(=O)c1cccc(C(F)(F)F)c1)CCCCCC2`, in assay [1], the outcome was inactive. Moreover, the outcome in assay [4] was Active. Besides, the values for the Activity in assay [2] and in assay [3] were 65% and 57%, respectively. In assay [5], the pKb was determined as 5.07.

`NC(=O)c1c(N)sc2c1CCCCC2`: the outcome in assay [1] was inactive. Moreover, the results for the Activity in assay [2] and in assay [3] were 50% and 47%, respectively.
